Key:
Jurkat cells = experiment: Induction of Hsc70, Hsp70A and Hsp70B′ proteins under different induction conditions, Western blotting; format: cell-based, human; settings: Azetidine 5 μM, 5 hours, CdCl2 100 μM, 2 hours, ZnCl2 250 μM
HeLa cells = experiment: as above; format: cell-based, human; settings: Azetidine 5 μM, 5 hours, CdCl2 100 μM, 2 hours, ZnCl2 250 μM; for Induction of Hsc70, relative protein level: 20 ug total cell lysate
[1] = system: HeLa, Jurkat and A-431 human cell lines; experiment: Relative induction of Hsc70, Hsp70A and Hsp70B′ proteins; format: cell-based
A431 cells = experiment: Induction of Hsc70, Hsp70A and Hsp70B′ proteins under different induction conditions, Western blotting; format: cell-based, human; settings: Azetidine 5 μM, 5 hours, CdCl2 100 μM, 2 hours, ZnCl2 250 μM
hsp70B′ mRNA = settings: Leung et al., Biochem. J. 267:125-132, 1990; cited from earlier work
recombinant bovine Hsc70 = target: T1, recombinant bovine Hsc70 (Bos taurus, UniProt P19120); experiment: Indirect EIA, relative titre index; format: binding; settings: Hsc70 Protein; relative to irrelevant antibody
T1 construct: purchased Stressgen Biotechnologies SPP-751

[2] = target: T2, recombinant hamster Grp78 (Mesocricetus auratus, UniProt P07823); experiment: Indirect EIA, relative titre index; format: binding; settings: Grp78 Protein; relative to irrelevant antibody
T2 construct: purchased Stressgen Biotechnologies SPP-765

[3] = target: recombinant M. tuberculosis Hsp71 (Mycobacterium tuberculosis, UniProt P9WMJ9)
Hsp70B′ [4] = target: T3, Hsp70B′ (Homo sapiens, UniProt P17066); experiment: Indirect EIA, relative titre index; format: binding
T3 construct: E. coli BL21 (DE3) cells harboring the expression plasmid for full length human Hsp70B′; made in house; host or cells: E. coli BL21 (DE3) / BLR (DE3), pET24a

unconjugated CE peptide = target: T4, unconjugated CE peptide (Homo sapiens, UniProt P17066); experiment: Indirect EIA, relative titre index; format: binding; settings: relative to irrelevant antibody
T4 construct: purchased Research Genetics, Inc; host or cells: chemical synthesis

unconjugated CB2 peptide = target: T5, unconjugated CB2 peptide (Homo sapiens, UniProt P17066); experiment: Indirect EIA, relative titre index; format: binding; settings: relative to irrelevant antibody
T5 construct: The CB peptide was also resynthesized on a separate occasion and designated CB2; purchased Research Genetics, Inc; host or cells: chemical synthesis

unconjugated ECB peptide = target: T6, unconjugated ECB peptide (Homo sapiens, UniProt P17066); experiment: Indirect EIA, relative titre index; format: binding; settings: relative to irrelevant antibody
T6 construct: purchased Research Genetics, Inc; host or cells: chemical synthesis

unconjugated TCB peptide = target: T7, unconjugated TCB peptide (Homo sapiens, UniProt P17066); experiment: Indirect EIA, relative titre index; format: binding; settings: relative to irrelevant antibody
T7 construct: purchased Research Genetics, Inc; host or cells: chemical synthesis

Hsp70B′ [5] = target: T3, Hsp70B′; experiment: Western blotting of HSP70 family members; format: binding; settings: SDS-denatured recombinant protein; band intensity 0-3
E. coli DnaK = E. coli DnaK (Escherichia coli, UniProt P0A6Y8)
recombinant human Hsp70A = target: T8, recombinant human Hsp70A (Homo sapiens, UniProt P0DMV8); experiment: Indirect EIA, relative titre index; format: binding; settings: Hsp70A Protein; relative to irrelevant antibody
T8 construct: purchased Stressgen Biotechnologies SPP-755

[6] = target: T9, 68 kDa (Hsp70B′) protein from HeLa cell lysates (Homo sapiens, UniProt P17066); experiment: Immunoblotting of unstressed and heat stressed human cell lysates; format: binding; set-up: key to Reactivity with 68 kDa (Hsp70B′) protein, HeLa: 0 = no signal; 3 = a very strong signal
T9 construct: endogenous in cells; host or cells: HeLa (ATCC CCL-2), unstressed and heat stressed

immunizing peptide = experiment: Anti-peptide titre ELISA with peptide on the solid phase; format: binding, human; settings: rabbit host
Experimental: Methods: Hsp70B′ Antibodies were produced as follows. Hsp70B′ antibodies were produced in rabbits, goats and mice with either synthetic peptides or recombinant Hsp70B′ protein as immunogen. Eight peptides were chosen from the human Hsp70B′ amino acid sequence. One of the Hsp70B′ peptides, the NT peptide […](C) (SEQ ID NO:9) corresponded to an N-terminal fragment. […] Sera were collected at various time points and the antibody response to the immunizing protein or peptide was evaluated in an indirect enzyme immunoassay (EIA). Titres were established as the dilution factor at which the absorbance in the test sample was equal to 0.2 optical density units. […]
Anti-peptide titre was determined as follows. […] The anti-peptide titres in the rabbits, goats, and mice were determined in an ELISA with peptide on the solid phase. […]
Biotinylated secondary antibodies (100 μl) were added to each microtitre plate test well and incubated for four hours at room temperature. […] The plates were read at 414 λ, 20 minutes following the addition of substrate. Titres were established as the reciprocal dilution factor at which the test sample was equal to 0.2 absorbance units.

T9 sequence (P17066 whole entry): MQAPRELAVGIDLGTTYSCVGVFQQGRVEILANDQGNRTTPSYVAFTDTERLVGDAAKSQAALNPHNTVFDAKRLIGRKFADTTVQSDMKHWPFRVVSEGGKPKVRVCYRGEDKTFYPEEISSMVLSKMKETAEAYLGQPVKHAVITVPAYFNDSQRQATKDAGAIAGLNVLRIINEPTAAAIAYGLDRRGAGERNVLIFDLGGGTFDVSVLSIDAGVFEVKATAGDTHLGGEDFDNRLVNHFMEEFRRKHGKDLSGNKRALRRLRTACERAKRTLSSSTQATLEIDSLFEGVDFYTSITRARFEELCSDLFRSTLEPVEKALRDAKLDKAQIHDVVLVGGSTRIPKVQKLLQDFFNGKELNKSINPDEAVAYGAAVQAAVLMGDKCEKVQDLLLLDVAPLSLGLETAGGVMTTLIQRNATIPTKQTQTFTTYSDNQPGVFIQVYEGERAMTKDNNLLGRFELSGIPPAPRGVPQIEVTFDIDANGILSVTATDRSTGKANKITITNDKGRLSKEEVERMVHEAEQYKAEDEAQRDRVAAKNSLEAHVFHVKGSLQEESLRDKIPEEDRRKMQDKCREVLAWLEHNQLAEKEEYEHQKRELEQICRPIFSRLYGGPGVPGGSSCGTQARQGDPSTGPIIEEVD
T3 sequence (P17066 whole entry): as above
T2 sequence (P07823 19-654): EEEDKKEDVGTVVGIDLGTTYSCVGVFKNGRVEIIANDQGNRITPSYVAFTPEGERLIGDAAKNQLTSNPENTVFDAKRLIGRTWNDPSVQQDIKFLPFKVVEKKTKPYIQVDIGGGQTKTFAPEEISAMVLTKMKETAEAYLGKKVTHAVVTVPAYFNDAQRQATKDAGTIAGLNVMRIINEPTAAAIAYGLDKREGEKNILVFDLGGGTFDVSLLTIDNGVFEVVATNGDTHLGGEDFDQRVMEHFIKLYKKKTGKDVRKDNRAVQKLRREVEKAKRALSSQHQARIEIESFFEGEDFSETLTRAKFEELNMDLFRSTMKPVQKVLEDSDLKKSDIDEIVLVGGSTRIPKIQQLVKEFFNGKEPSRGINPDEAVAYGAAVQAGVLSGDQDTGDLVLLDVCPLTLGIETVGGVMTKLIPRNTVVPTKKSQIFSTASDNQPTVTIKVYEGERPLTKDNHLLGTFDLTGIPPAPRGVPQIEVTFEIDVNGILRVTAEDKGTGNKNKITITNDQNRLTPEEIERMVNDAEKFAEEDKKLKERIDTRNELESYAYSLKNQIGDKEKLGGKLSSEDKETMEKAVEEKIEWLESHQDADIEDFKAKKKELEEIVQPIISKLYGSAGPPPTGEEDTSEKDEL
T8 sequence (P0DMV8 whole entry): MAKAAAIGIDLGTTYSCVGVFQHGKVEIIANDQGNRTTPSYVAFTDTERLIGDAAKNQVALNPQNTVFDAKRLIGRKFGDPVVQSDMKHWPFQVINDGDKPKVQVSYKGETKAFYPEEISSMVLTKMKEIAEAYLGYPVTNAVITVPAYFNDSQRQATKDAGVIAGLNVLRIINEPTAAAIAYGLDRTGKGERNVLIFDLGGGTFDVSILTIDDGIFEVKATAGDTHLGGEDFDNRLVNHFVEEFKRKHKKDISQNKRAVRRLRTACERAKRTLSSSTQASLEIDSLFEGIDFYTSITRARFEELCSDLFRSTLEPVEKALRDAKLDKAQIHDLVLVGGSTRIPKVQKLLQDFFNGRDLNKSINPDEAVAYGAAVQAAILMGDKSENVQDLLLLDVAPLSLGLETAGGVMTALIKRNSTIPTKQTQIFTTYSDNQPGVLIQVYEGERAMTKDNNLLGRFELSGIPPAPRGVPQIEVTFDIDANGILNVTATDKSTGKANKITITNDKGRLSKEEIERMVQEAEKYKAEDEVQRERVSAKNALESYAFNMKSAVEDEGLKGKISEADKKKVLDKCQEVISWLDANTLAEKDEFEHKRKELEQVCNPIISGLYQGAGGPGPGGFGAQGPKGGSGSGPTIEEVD
Chain of recombinant M. tuberculosis Hsp71 (P9WMJ9 whole entry): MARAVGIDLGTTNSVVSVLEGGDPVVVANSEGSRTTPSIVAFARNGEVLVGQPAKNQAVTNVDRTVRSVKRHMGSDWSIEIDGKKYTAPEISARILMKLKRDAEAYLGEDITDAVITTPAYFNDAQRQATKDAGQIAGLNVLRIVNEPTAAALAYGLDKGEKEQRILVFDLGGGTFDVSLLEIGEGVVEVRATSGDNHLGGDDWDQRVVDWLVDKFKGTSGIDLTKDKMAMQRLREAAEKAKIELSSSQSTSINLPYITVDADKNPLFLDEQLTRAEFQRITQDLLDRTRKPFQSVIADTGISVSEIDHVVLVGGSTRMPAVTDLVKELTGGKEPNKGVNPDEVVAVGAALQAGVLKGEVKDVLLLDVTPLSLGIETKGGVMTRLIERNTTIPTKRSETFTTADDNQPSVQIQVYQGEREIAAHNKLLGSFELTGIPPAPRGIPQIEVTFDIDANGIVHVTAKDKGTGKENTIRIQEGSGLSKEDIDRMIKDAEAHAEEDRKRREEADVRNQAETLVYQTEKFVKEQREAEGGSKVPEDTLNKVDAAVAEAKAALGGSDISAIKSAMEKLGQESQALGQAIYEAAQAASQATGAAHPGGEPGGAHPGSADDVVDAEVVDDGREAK
T1 sequence (P19120 whole entry): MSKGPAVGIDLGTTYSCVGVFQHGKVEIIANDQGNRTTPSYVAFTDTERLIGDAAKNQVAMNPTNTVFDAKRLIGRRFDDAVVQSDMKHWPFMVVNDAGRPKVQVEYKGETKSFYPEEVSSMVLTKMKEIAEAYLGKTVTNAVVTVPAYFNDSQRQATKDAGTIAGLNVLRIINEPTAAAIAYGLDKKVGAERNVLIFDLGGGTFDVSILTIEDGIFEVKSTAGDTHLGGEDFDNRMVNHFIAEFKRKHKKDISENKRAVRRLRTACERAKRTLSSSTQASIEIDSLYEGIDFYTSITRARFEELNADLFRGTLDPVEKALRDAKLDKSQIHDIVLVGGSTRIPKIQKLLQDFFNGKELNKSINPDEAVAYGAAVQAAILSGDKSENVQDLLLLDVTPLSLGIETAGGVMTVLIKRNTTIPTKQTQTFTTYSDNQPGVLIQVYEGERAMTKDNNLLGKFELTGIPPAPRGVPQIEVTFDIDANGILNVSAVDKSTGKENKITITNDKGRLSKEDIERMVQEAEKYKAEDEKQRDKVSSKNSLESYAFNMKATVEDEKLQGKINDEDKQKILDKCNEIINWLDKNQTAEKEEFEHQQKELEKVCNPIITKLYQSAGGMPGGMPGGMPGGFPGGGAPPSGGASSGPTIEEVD
Chain of E. coli DnaK (P0A6Y8 whole entry): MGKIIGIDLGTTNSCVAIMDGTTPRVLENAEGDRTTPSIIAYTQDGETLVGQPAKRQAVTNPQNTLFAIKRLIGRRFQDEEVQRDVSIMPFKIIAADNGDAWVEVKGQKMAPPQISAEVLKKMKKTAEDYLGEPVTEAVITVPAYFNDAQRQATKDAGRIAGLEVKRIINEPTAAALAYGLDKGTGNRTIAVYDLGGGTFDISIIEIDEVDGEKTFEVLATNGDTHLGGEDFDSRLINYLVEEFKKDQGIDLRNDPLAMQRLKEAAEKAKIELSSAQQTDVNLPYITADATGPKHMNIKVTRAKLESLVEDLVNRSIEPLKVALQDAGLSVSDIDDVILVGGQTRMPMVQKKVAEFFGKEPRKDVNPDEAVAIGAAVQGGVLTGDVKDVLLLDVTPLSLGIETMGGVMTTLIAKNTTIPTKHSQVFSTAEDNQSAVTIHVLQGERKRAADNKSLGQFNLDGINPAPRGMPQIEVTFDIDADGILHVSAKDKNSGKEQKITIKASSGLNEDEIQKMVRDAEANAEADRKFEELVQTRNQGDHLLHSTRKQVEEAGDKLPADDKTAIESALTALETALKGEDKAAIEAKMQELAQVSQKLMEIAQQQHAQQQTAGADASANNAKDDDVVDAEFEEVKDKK

Compound | Induction of Hsc70, relative protein level (Jurkat cells) | Induction of Hsp70A, relative protein level (Jurkat cells) | Induction of Hsp70A/B′, relative protein level (Jurkat cells) | Induction of Hsp70B′, relative protein level (Jurkat cells) | Induction of Hsp70A, relative protein level (HeLa cells) | Induction of Hsp70A/B′, relative protein level (HeLa cells) | Induction of Hsp70B′, relative protein level (HeLa cells) | Induction of Hsc70, relative protein level (HeLa cells) | Expression of the constitutive Hsc70 protein [1] | Induction of Hsp70B′ protein [1] | Induction of Hsc70, relative protein level (A431 cells) | Induction of Hsp70A, relative protein level (A431 cells) | Induction of Hsp70A/B′, relative protein level (A431 cells) | Induction of Hsp70B′, relative protein level (A431 cells) | further results
[Cl][Cd][Cl] [CdCl2] | +3 | +2 | +2 | +3 | +3 | +3 | +2 | +3 | not affected | induced | +3 | +2 | +3 | +1 | hsp70B′ mRNA after treatment (hsp70B′ mRNA): only trace amounts
[Cl-].[Cl-].[Zn+2] [ZnCl2] | +3 | +2 | +1 | +1 | +3 | +3 | +1 | +3 | not affected | induced | +3 | +2 | +3 | +2 | –
ECB (VPGGSSCGTQARQGDPSTGPI) | – | – | – | – | – | – | – | – | – | – | – | – | – | – | Relative Titre Index (recombinant bovine Hsc70): 1; Relative Titre Index [2]: 1; Relative Titre Index [3]: 1; Relative Titre Index (Hsp70B′ [4]; Hsp70B′ Protein, relative to irrelevant antibody, rabbit antibody): ≧41; Preferential reactivity with Hsp70B′ over other HSP70 protein homologs (Hsp70B′ [4]; based on absolute relative titre index values): 41 fold; Relative Titre Index (unconjugated CE peptide): 1; Relative Titre Index (unconjugated CB2 peptide): ≧86; Relative Titre Index (unconjugated ECB peptide): ≧129; Relative Titre Index (unconjugated TCB peptide): *1; Hsp70B′ Reactivity Rec. protein (Hsp70B′ [5]): 3; Relative Titre Index (E. coli DnaK): 1; Relative Titre Index (recombinant human Hsp70A): 1; Reactivity with 68 kDa (Hsp70B′) protein, HeLa HS ([6]; heat stressed HeLa lysate, 10-20 μg): 3; Antisera that specifically detected Hsp70B′ in immunoblots (fraction of rabbits) ([6]; sera from three individual rabbits): ⅓; Reactivity with 68 kDa (Hsp70B′) protein, HeLa ([6]; unstressed HeLa lysate, 10-20 μg): 0; # Animals Responding (immunizing peptide): 3/3; Antisera Titer (EIA) (immunizing peptide; individual animals, reciprocal dilution giving 0.2 absorbance units): >204800

Reference: US7326574B2, “Compositions and methods for detecting stress-inducible proteins” (Stressgen Biotechnologies Corporation, priority 1999, dated 2008)
